Results from article PMC11124341, “4-Hydroxybenzoic Acid-Based Hydrazide–Hydrazones as Potent Growth Inhibition Agents of Laccase-Producing Phytopathogenic Fungi That Are Useful in the Protection of Oilseed Crops” (Molecules, 2024).
Values after ≈ are worked out from the molar mass of the structure shown. Read-outs that look alike come from different tables or passages of the source.

Columns and labels:
[1] = tested on: Balb/3T3 cells; test: Antiproliferative assay in vitro (SRB); format: cell-based, mouse; details: read-out: Average IC50 ± SD, Balb/3T3 line
Experimental: (§1) Antiproliferative tests were performed on a normal human breast cell line, MCF-10A, and a mouse embryonic fibroblast: Balb/3T3. Both cell lines were obtained from the American Type Culture Collection (Rockville, MD, USA). The cell lines were maintained in the Institute of Immunology and Experimental Therapy, Wroclaw, Poland. MCF-10A cells were cultured in the F-12 nutrient mixture (Gibco, Scotland, UK), supplemented with 5% horse serum (Gibco, Scotland, UK), […] (Vibrio cholerae Pacini), 10 μg/mL of hydrocortisone and 20 ng/mL of human epidermal growth factor (all from Sigma-Aldrich, Chemie GmbH, Steinheim, Germany). Balb/3T3 cells were cultured in Dulbecco medium (Gibco, Darmstadt, Germany) supplemented with 10% fetal bovine serum (Thermo Fisher Scientific, Waltham, MA, USA) and 2 mM l-glutamine (Sigma-Aldrich, St. Louis, MO, USA). All culture media contained antibiotics: 100 U/mL penicillin (Sigma-Aldrich, St. Louis, MO, USA) and 100 µg/mL streptomycin (Polfa-Tarchomin, Warsaw, Poland). Both cell lines were cultured during the entire experiment in a humid atmosphere at 37 °C and 5% CO2. Amistar 250 SC (fungicide) with active compound azoxystrobin was provided by the Institute of Soil Science and Plant Cultivation, National Research Institute in Pulawy, Department of Weed Science and Tillage Systems in Wroclaw, Poland […].
(§2) Twenty-four hours prior to the applications of the tested compounds, MCF-10A and Balb/3T3 cells were plated in 96-well plates at a density of 10^4 cells per well and cultured at 37 °C in a humid atmosphere saturated with 5% CO2 for 24 h. Stock solutions of the compounds were prepared ex tempore for each test by dissolving in DMSO. The cells were also exposed to the reference drugs: cis-platin (Accord, London, UK) (10–0.01 µg/mL) and DMSO (Sigma-Aldrich) (at the concentrations corresponding to those in the tested agent dilutions). The solutions were then diluted in culture medium RPMI 1640 + Opti-MEM (1:1) (both from Gibco, Scotland, UK), supplemented with 2 mM l-glutamine, 5% fetal bovine serum (all from Sigma-Aldrich Chemie GmbH, Steinheim, Germany). An assay was performed after 72 h of exposure to the tested compounds 13, 17, 18, 19, 25, 27, 30, 4-hba, 4-hbah, and 3,4,5-hba (0.5, 5.0, 50, and to 500 µM) and azoxystrobin fungicide (0.05, 0.5, 5.0 and 50 µM). The antiproliferative effect in vitro was determined by the SRB method (sulforhodamine B colorimetric assay). The optical densities of the samples were measured on the Synergy H4 photometer (BioTek Instruments, Winooski, VT, USA) at 540 nm. The results were calculated as 50% inhibitory concentration (IC50), namely the dose of the tested compound inhibiting proliferation of the tested cells by 50% as compared to the untreated control cells, in the Prolab-3 system based on Cheburator 0.4 software using the two-point method. Each test was repeated 3–5 times.
(§3) Cytotoxicity was performed on two normal cell lines: MCF -10A and Balb/3T3, using as controls cis-platin in the concentrations of 0.03 32, 0.3 32, 3.32 and 33.2 µM and azoxystrobin fungicide in the […]
(§4) were tested in the concentrations of 0.5, 5.0, 50, and 500 µM. The relation of compound concentration […]
(§5) Further, a comparison of the influence of each tested concentration in the group of tested compounds on cell lines was illustrated in Figure S130 a (MCF-10A) and b (Balb/T3T).
(§6) Table S4. Cytotoxicity results for compounds 13, 17, 18, 19, 25, 27, and 30 investigated on normal mammalian lines: MCF -10A and B alb/3T3 using Azoxystrobin (fungicide) and cis-platin as reference compounds.
(§7) Cytotoxicity profile presented as proliferation inhibition, % (y -axis) in the function of compound concentration, […]
(§8) Structure MCF-10A Balb/3T3
(§9) Proliferation inhibition [%] […]

[2] = tested on: MCF-10A cells; test: Antiproliferative assay in vitro (SRB); format: cell-based, human; details: read-out: Average IC50 ± SD, MCF-10A line
Experimental: as §1, §2, §3, §4, §5, §6, §7, §8, §9

[3] = tested on: S. sclerotiorum; details: cited from earlier work
[4] = tested on: acetylcholinesterase (AChE); parameters: method as in PMID 33668452; details: cited from earlier work
[5] = tested on: B. cinerea; details: cited from earlier work
[6] = tested on: hepatitis C virus (HCV); parameters: method as in PMID 26695731; details: read-out: EC50 against HCV; cited from earlier work
[7] = tested on: Mahlavu line; parameters: method as in PMID 26695731; details: cited from earlier work
[8] = molecular target: MPO (myeloperoxidase); parameters: method as in PMID 32278712; details: cited from earlier work
[9] = tested on: Botrytis cinerea strain FBc05; test: In vitro antifungal activity, mycelial growth inhibition on PDA medium; format: cell-based; details: Botrytis cinerea, FBC05; screening at basal 50 µg/mL, PDA medium, mean ± SD of three determinations; read-out: fungal growth inhibition, B. cinerea
Experimental: (§10) The cultures of Botrytis cinerea strain FBc05 and Sclerotinia sclerotiorum strain FSc10 were obtained from the collection of the Division of Plant Pathology and Mycology at the Department of Plant Protection of Wroclaw University of Environmental and Life Sciences (Poland). Cerrena unicolor (Bull.ex.Fr.) Murr, strain no. 139, originated from the culture collection of the Department of Biochemistry, University of Lublin (Poland). The stock cultures were maintained on potato dextrose agar at +4 °C and periodically transferred to a fresh medium.
(§11) Prior to the fungicidal activity assay of hydrazide–hydrazones 1–35, we considered ethanol and DMSO as potential dissolution media for tested compounds. […] Furthermore, a very important aspect of biological testing is the careful selection of organic solvents. These are typically used, e.g., methanol, ethanol, acetone, and DMSO, and may be highly toxic for microorganisms in even very low concentrations, such as 1% (v/v). Ethanol and DMSO with a final concentration between 0.1 and 1.0% (v/v) in a PDA medium were used and applied to evaluate the inhibition growth of B. cinerea, S. sclerotiorum, and C. unicolor (see Supplementary Materials). The following procedure was applied to the microorganism testing. The assays of fungi inhibition growth were performed at a basal concentration of 50 µg/mL for all compounds, and detailed experiments were extended for testing between 0 and 50 µg/mL (0, 6.25, 12.5, 25.0, and 50.0 µg/mL) for selected compounds. The tests were carried out on Petri dishes (diameter 60 mm) with PDA medium containing appropriate compound, co-solvent control, and hydrazide–hydrazone dissolved in co-solvent assay. A piece of mycelium with a 5 mm edge taken from the outer edge of the growing fungi on the PDA plate with co-solvent was transferred to a central part of the PDA plate with the examined compound. The plates thus inoculated were incubated at 22 °C in the dark for a time when the control plate containing only the co-solvent was covered entirely with the tested microorganism. For B. cinerea and S. sclerotiorum, the test took 3 days, and for C. unicolor, it took 7 days. Each assay was performed at least in triplicate. […] Model parameters c and e were estimated using the nonlinear least-squares method. Parameters d and b (with two exceptions) were fixed and assumed to be equal. Based on estimated parameters, the values of IC50 were determined. […] The IC50 values were calculated only in cases when the model predicted a decrease in growth rate by more than 50%.
(§12) In vitro antifungal activity
(§13) Prior to the fungicidal activity assay of hydrazide-hydrazones 1–35, we considered ethanol (EtOH) and DMSO as potential dissolution media for tested compounds.
(§14) EtOH and DMSO with a final concentration between 0.1–1.0% (v/v) in a PDA medium were applied to evaluate the inhibition growth of B. cinerea, S. sclerotiorum, and C. unicolor (see Table S3). The following procedure was applied to the microorganism testing with the hydrazide-hydrazones. The assays of fungi inhibition growth were performed at a basal concentration of 50 µg/mL for all compounds, and detailed experiments were extended for testing selected molecules 18, 19, 27, […]
(§15) Table S2. In vitro antifungal activity for DMSO and ethanol co-solvents.

[10] = tested on: Cerrena unicolor strain no. 139; test: as above; format: cell-based; details: Cerrena unicolor, NO.139; screening at basal 50 µg/mL, PDA medium, mean ± SD of three determinations; read-out: fungal growth inhibition, C. unicolor
Experimental: as §10, §11, §12, §13, §14, §15

[11] = tested on: Sclerotinia sclerotiorum strain FSc10; test: as above; format: cell-based; details: screening at basal 50 µg/mL, PDA medium, mean ± SD of three determinations
Experimental: as §10, §11, §12, §13, §14, §15

[12] = tested on: Candida; parameters: method as in PMID 23142671; details: cited from earlier work
[13] = tested on: B. cinerea; parameters: method as in PMID 24582134; details: cited from earlier work
[14] = tested on: Alternaria alternata (Fr.) Keissl; parameters: method as in PMID 24582134; details: cited from earlier work
[15] = tested on: Fusarium oxysporum Schltdl.; parameters: method as in PMID 24582134; details: cited from earlier work
[16] = tested on: Rhizopus oryzae; parameters: method as in PMID 24582134; details: cited from earlier work

Question: Which results are given for `O=C(O)c1cc(O)c(O)c(O)c1` [3,4,5-hba, gallic acid, reference compound]?
Answer: IC50 ([1]; Mus musculus, BALB/3T3, 72 h): 163 ± 1.95 µM; IC50 ([2]; Homo sapiens, MCF-10A, 72 h): 174 ± 14.3 µM

Question: With `O=C(NN=Cc1cn(-c2ccccc2Cl)nn1)c1ccccc1` [((1-(2-chlorophenyl)-1H-1,2,3-triazol-4-yl)methylene)benzohydrazide] as the compound, how does the “activity against S. sclerotiorum” value ([3]; 25 µg/mL) read?
Answer: inactive

Question: For `COc1ccc(/C=N/NC(=O)c2cn(C)c3ccccc3c2=O)cc1OC` [(E)-N′-(3,4-dimethoxybenzylidene)-1-methyl-4-oxo-1,4-dihydroquinoline-3-carbohydrazide], which “S. sclerotiorum growth inhibition” value [3] is on record?
Answer: more than 80%

Question: With `Cn1cc(C(=O)N/N=C/c2cc3ccccc3[nH]2)c(=O)c2ccccc21` [(E)-N′-((1H-indol-2-yl)methylene)-1-methyl-4-oxo-1,4-dihydroquinoline-3-carbohydrazide] as the compound, how does the “S. sclerotiorum growth inhibition” value [3] read?
Answer: more than 80%

Question: For `CO/C=C(/C(=O)OC)c1ccccc1Oc1cc(Oc2ccccc2C#N)ncn1` [Azoxystrobin, reference compound], which IC50 ([1]; 72 h exposure, SRB method) is on record?
Answer: 0.1 ± 0.03 µM

Question: Which IC50 ([1]; 72 h exposure, SRB method) does the source give for `N.N.[Cl][Pt][Cl]` [Cis-platin, reference compound] here?
Answer: 9.8 ± 1.93 µM

Question: And the IC50 ([2]; 72 h exposure, SRB method)?
Answer: 9.27 ± 1.63 µM

Question: For `O=C(N/N=C/c1ccccc1O)c1ccc(C(F)(F)F)cc1` [IX], which BuChE/AChE selectivity [4] is on record?
Answer: 18.6

Question: What does the source list for `CC1N[C@H](C(=O)NN=Cc2ccc(Cl)c(Cl)c2)Cc2c1[nH]c1ccccc21` (stereo partly drawn) [N′-(3,4-dichloro-benzylidene)-(3S)-1-methyl-2,3,4,9-tetrahydro-1H-pyrido[3,4-b]indole-3-carbohydrazide]?
Answer: growth inhibition of B. cinerea [5]: more than 80%; growth inhibition of S. sclerotiorum [3]: more than 80%

Question: For `CC1N[C@H](C(=O)NN=Cc2ccc(C(C)(C)C)cc2)Cc2c1[nH]c1ccccc21` (stereo partly drawn) [N′-(4-tert-butyl-benzylidene)-(3S)-1-methyl-2,3,4,9-tetra-hydro-1H-pyrido [3,4-b]indole-3-carbohydrazide], which “growth inhibition of B. cinerea” value [5] is on record?
Answer: more than 80%

Question: And the “growth inhibition of S. sclerotiorum” value [3]?
Answer: more than 80%

Question: With `Cc1ccc(C(=O)ON=C2C=CC(=NNC(=O)c3ccccc3)C=C2)cc1` [N′-(4-{[(4-methylbenzoyl)oxy]imino}cyclohexa-2,5-dien-1-ylidene)benzohydrazide] as the compound, how does the “restriction of mycelium growth, B. cinerea” value [5] read?
Answer: 35%

Question: For `O=C(NN=Cc1ccccn1)c1cc(-c2ccc(F)cc2F)ccc1O` [XI], which EC50 [6] is on record?
Answer: 3.9 µM

Question: And the EC50 [7]?
Answer: 4.74 µM

Question: For `O=C(N/N=C/c1cc(O)ccc1O)c1ccncc1` [X], which IC50 [8] is on record?
Answer: 4.8 µM

Question: With `O=C(N/N=C/c1ccc(O)cc1O)c1ccccc1` [compound 22] as the compound, how does the inhibition of growth at 50 µg/mL [9] read?
Answer: 32 ± 2.9%

Question: What about the inhibition of growth at 50 µg/mL [10] of the same compound?
Answer: 75.4 ± 6.2%

Question: What about the “fungal growth inhibition, S. sclerotiorum” value [11] of the same compound?
Answer: n.o.

Question: And the melting point?
Answer: 255 to 256 °C (dec.)

Question: For `O=C(N/N=C/c1cc(O)c(O)cc1O)c1ccc(O)cc1` [compound 23], which inhibition of growth at 50 µg/mL [9] is on record?
Answer: 6.8 ± 2.5%

Question: What about the inhibition of growth at 50 µg/mL [10] of the same compound?
Answer: 5.8 ± 2.7%

Question: And the inhibition of growth at 50 µg/mL ([11]; Sclerotinia sclerotiorum, FSC10, read-out: fungal growth inhibition, S. sclerotiorum)?
Answer: 2.7 ± 0.4%

Question: What about the melting point of the same compound?
Answer: 253 °C (dec.)

Question: What does the source list for `COc1cc(/C=N/NC(=O)c2ccc(O)cc2)c(O)c(CO)c1` [compound 26, 4-Hydroxy-N′-[(E)-(2-hydroxy-3-hydroxymethyl-5-methoxyphenyl)methylidene]benzohydrazide]?
Answer: inhibition of growth at 50 µg/mL [9]: 3.2 ± 0.5%; inhibition of growth at 50 µg/mL [10]: 54.6 ± 3.1%; fungal growth inhibition, S. sclerotiorum [11]: n.o.; melting point: 219 to 220 °C

Question: For `COc1ccc2c3c1O[C@H]1C[C@@H](O)C=C[C@@]31CCN(C)C2` [galantamine, reference compound], which BuChE/AChE selectivity [4] is on record?
Answer: 1.8

Question: Which “MIC, anticandidal activity” value [12] does the source give for `CC(=O)N1CCN(c2ccc(OCC3COC(Cn4ccnc4)(c4ccc(Cl)cc4Cl)O3)cc2)CC1` (centres unmarked) [ketoconazole, reference compound] here?
Answer: 1 to 31 µg/mL

Question: Which “MIC (minimum inhibitory concentration), B. cinerea” value [13] does the source give for `Cc1ccc(C(C)C)c(O)c1` [thymol] here?
Answer: 300 µg/mL (≈ 2000 µM)

Question: And the “MIC (minimum inhibitory concentration), Alternaria alternata” value [14]?
Answer: 400 µg/mL (≈ 2660 µM)

Question: What about the “MIC (minimum inhibitory concentration), Fusarium oxysporum” value [15] of the same compound?
Answer: 300 µg/mL (≈ 2000 µM)

Question: What about the “MIC (minimum inhibitory concentration), Rhizopus oryzae” value [16] of the same compound?
Answer: 450 µg/mL (≈ 3000 µM)
